Experimental data taken from patent US8580820B2, “Tubulysin compounds with high cytotoxicity, pharmaceutical compositions thereof, and method of use thereof” (Kemtech S.r.L., priority 2009, dated 2013).

Assays:
HL60 (human leukaemia) = assay: Cytotoxicity in vitro, cellular viability (ATPlite Perkin Elmer test), HL60; format: cell-based; parameters: cellular viability (ATPlite Perkin Elmer test): unit not given here; conditions: HL60, 72 hours
Protocol: (§1) The cytotoxic effects of the compounds of formula (A) were evaluated by treating […] with different concentrations of the compounds under screening. The following cell lines were used: A2780 (human ovarian carcinoma), HL60 (human leukaemia), C6 (rat glioma) and HT29 (adenocarcinoma of human colon). The cell lines have been obtained by ECACC (European Collection of Cell Cultures).
(§2) The cell lines have been cultured in 75 cm^2 flasks with culture medium DMEM (Dulbecco's Medium Eagle Modified, Sigma Aldrich®) and the following additives (Sigma Aldrich®): L-Glutamine 2 mM, 10% Fetal Bovine Serum, Penicillin/-Streptomycin, Fungizone, Gentamycin. The incubation was carried out in modified atmosphere incubators (37° C., 5% CO2). When cell confluence was obtained, the cells were propagated by dilution in a ratio 1:3/1:5 by using a Trypsin-EDTA 1× solution and then transferred into 96 well plates in the suitable culture medium. The cells were then treated for 72 hours with different concentrations (10^−13+10^−4 M) of the compounds under examination. For the tests in vitro the compounds obtained in the examples 1.15 and 6.8 were solubilised in dimethylsulphoxide (DMSO). All the tests were performed with a constant DMSO concentration equal to 0.1% by weight.
(§3) In order to control the cellular viability, the ATPlite test (Perkin Elmer) was used. The APTlite test evaluates the ATP production. APT is a marker of cellular viability as it is present in all the metabolically active cells. The test’ is based on the chemiluminiscence due to the ATP reaction with the luciferase and the D-luciferin. The emitted light is proportional to the ATP concentration. For the reading the Victor 3 instrument by Perkin Elmer was used.
(§4) Four readings were taken for each sample solution. The results (average values) for the cytotoxicity of the compounds of formula (A) obtained in examples 1.15 and 6.8 are reported respectively in Tables 1 and 2. It is noted that the GI50 values determined by means of the cellular viability values are lower than 2 nM. This confirms the high cytotoxicity of the compound of formula (A).

[1] = system: HT29 (adenocarcinoma of human colon); assay: Cytotoxicity in vitro, cellular viability (ATPlite Perkin Elmer test), HT29; format: cell-based; parameters: cellular viability (ATPlite Perkin Elmer test): unit not given here; conditions: for cellular viability (ATPlite Perkin Elmer test): 72 hours
Protocol: as §1, §2, §3, §4

[2] = system: A2780 (human ovarian carcinoma); assay: Cytotoxicity in vitro, cellular viability (ATPlite Perkin Elmer test), A2780; format: cell-based; parameters: cellular viability (ATPlite Perkin Elmer test): unit not given here; conditions: 72 hours
Protocol: as §1, §2, §3, §4

[3] = Cytotoxicity in vitro, cellular viability (ATPlite Perkin Elmer test), C6; format: cell-based, rat; parameters: cellular viability (ATPlite Perkin Elmer test): unit not given here; conditions: rat, C6 rat glioma cells, C6, 72 hours
Protocol: as §1, §2, §3, §4

C6 (rat glioma) = assay: as above; format: cell-based; parameters: cellular viability (ATPlite Perkin Elmer test): unit not given here; conditions: C6, 72 hours
Protocol: as §1, §2, §3, §4

[4] = system: A2780, HL60, C6 and HT29 cell lines; assay: Cytotoxicity in vitro, summary over the cell lines of example 14; format: cell-based, human; rat; conditions: all cell lines of Tables 1 and 2; read-out: GI50 values determined by means of the cellular viability values
Protocol: as §1
as §2, with “All the tests were performed with a constant DMSO concentration equal to 0.1% by weight.” left out
In order to control the cellular viability, the ATPlite test (Perkin Elmer) was used. […] For the reading the Victor 3 instrument by Perkin Elmer was used.
Four readings were taken for each sample solution. […]

CC[C@H](C)[C@H](NC(=O)[C@H]1CCCCN1C)C(=O)N(CCOC)[C@H](C[C@@H](OC(C)=O)c1nc(C(=O)N[C@@H](Cc2ccccc2)C[C@H](C)C(=O)O)cs1)C(C)C [Example 6.8, (2S,4R)-4-(2-((1R,3R)-1-acetoxy-3-((2S,3R)—N(2-methoxyethyl)-3-methyl-2-(1-methylpiperidine-2-carboxamido)pentanamido)-4-methylpentyl)thiazol-4-carboxamido)-2-methyl-5-phenylpentanoic acid]
cellular viability (ATPlite Perkin Elmer test) (HL60 (human leukaemia); compound 10^−4 mole/litre): 0.75
cellular viability (ATPlite Perkin Elmer test) (HL60 (human leukaemia); compound 10^−5 mole/litre): 1.22
cellular viability (ATPlite Perkin Elmer test) (HL60 (human leukaemia); compound 10^−6 mole/litre): 1.25
cellular viability (ATPlite Perkin Elmer test) (HL60 (human leukaemia); compound 10^−7 mole/litre): 1.14
cellular viability (ATPlite Perkin Elmer test) (HL60 (human leukaemia); compound 10^−8 mole/litre): 1.04
cellular viability (ATPlite Perkin Elmer test) (HL60 (human leukaemia); compound 10^−9 mole/litre): 1.36
cellular viability (ATPlite Perkin Elmer test) (HL60 (human leukaemia); compound 10^−10 mole/litre): 3.53
cellular viability (ATPlite Perkin Elmer test) (HL60 (human leukaemia); compound 10^−11 mole/litre): 56.38
cellular viability (ATPlite Perkin Elmer test) (HL60 (human leukaemia); compound 10^−12 mole/litre): 102.0
cellular viability (ATPlite Perkin Elmer test) (HL60 (human leukaemia); compound 10^−13 mole/litre): 100.9
GI50 (HL60 (human leukaemia); Homo sapiens, HL-60, value is GI50 multiplied by 10^9, Table 2, read-out: GI50 × 10^9): 0.0108 nM
GI50 ([1]; Homo sapiens, HT-29, 72 hours, value is GI50 multiplied by 10^9, Table 2): 0.278 nM
cellular viability (ATPlite Perkin Elmer test) ([1]; compound 10^−4 mole/litre): 11.55
cellular viability (ATPlite Perkin Elmer test) ([1]; compound 10^−5 mole/litre): 11.46
cellular viability (ATPlite Perkin Elmer test) ([1]; compound 10^−6 mole/litre): 18.08
cellular viability (ATPlite Perkin Elmer test) ([1]; compound 10^−7 mole/litre): 17.68
cellular viability (ATPlite Perkin Elmer test) ([1]; compound 10^−8 mole/litre): 20.38
cellular viability (ATPlite Perkin Elmer test) ([1]; compound 10^−9 mole/litre): 24.49
cellular viability (ATPlite Perkin Elmer test) ([1]; compound 10^−10 mole/litre): 95.7
cellular viability (ATPlite Perkin Elmer test) ([1]; compound 10^−11 mole/litre): 115.6
cellular viability (ATPlite Perkin Elmer test) ([1]; compound 10^−12 mole/litre): 107.5
cellular viability (ATPlite Perkin Elmer test) ([1]; compound 10^−13 mole/litre): 108.0
GI50 ([2]; Homo sapiens, value is GI50 multiplied by 10^9, Table 2, read-out: GI50 × 10^9): 1.54 nM
cellular viability (ATPlite Perkin Elmer test) ([2]; compound 10^−4 mole/litre): 3.08
cellular viability (ATPlite Perkin Elmer test) ([2]; compound 10^−5 mole/litre): 8.41
cellular viability (ATPlite Perkin Elmer test) ([2]; compound 10^−6 mole/litre): 9.11
cellular viability (ATPlite Perkin Elmer test) ([2]; compound 10^−7 mole/litre): 9.11
cellular viability (ATPlite Perkin Elmer test) ([2]; compound 10^−8 mole/litre): 22.80
cellular viability (ATPlite Perkin Elmer test) ([2]; compound 10^−9 mole/litre): 64.56
cellular viability (ATPlite Perkin Elmer test) ([2]; compound 10^−10 mole/litre): 106.7
cellular viability (ATPlite Perkin Elmer test) ([2]; compound 10^−11 mole/litre): 109.7
cellular viability (ATPlite Perkin Elmer test) ([2]; compound 10^−12 mole/litre): 104.1
cellular viability (ATPlite Perkin Elmer test) ([2]; compound 10^−13 mole/litre): 104.0
viability at 72 h ([3]; compound 10^−5 mole/litre): 20.2%
viability at 72 h ([3]; compound 10^−6 mole/litre): 19.6%
cellular viability (ATPlite Perkin Elmer test) (C6 (rat glioma); compound 10^−4 mole/litre): 19.10
cellular viability (ATPlite Perkin Elmer test) (C6 (rat glioma); compound 10^−7 mole/litre): 20.70
cellular viability (ATPlite Perkin Elmer test) (C6 (rat glioma); compound 10^−8 mole/litre): 25.60
cellular viability (ATPlite Perkin Elmer test) (C6 (rat glioma); compound 10^−9 mole/litre): 39.57
cellular viability (ATPlite Perkin Elmer test) (C6 (rat glioma); compound 10^−10 mole/litre): 64.15
cellular viability (ATPlite Perkin Elmer test) (C6 (rat glioma); compound 10^−11 mole/litre): 96.68
cellular viability (ATPlite Perkin Elmer test) (C6 (rat glioma); compound 10^−12 mole/litre): 99.13
cellular viability (ATPlite Perkin Elmer test) (C6 (rat glioma); compound 10^−13 mole/litre): 101.2
GI50 (C6 (rat glioma); Rattus norvegicus, value is GI50 multiplied by 10^9, Table 2, read-out: GI50 × 10^9): 0.147 nM
GI50 [4]: < 2 nM
